Test results: patent US8455515B2, “Substituted 4-phenyltetrahydroisoquinolines, process for their preparation, pharmaceutical compositions and therapeutic use” (Sanofi, priority 2005, dated 2013)
Counter-ions that a name gives are not always drawn. Blank lines part the entries; values can stand above or below the molecule they belong to.

Key:
[1] = system: adrenergic alpha-2 receptor; conditions: cited from earlier work
imidazoline receptor = conditions: cited from earlier work
NHE [2] = molecular target: T1, NHE (Homo sapiens, UniProt P48764); assay: recovery of intracellular pH in LAP1 cells expressing NHE (FLIPR, BCECF); type: cell-based; conditions: LAP1 cells stably expressing NHE, pH recovery after acidification
T1 sequence (P48764 26-834): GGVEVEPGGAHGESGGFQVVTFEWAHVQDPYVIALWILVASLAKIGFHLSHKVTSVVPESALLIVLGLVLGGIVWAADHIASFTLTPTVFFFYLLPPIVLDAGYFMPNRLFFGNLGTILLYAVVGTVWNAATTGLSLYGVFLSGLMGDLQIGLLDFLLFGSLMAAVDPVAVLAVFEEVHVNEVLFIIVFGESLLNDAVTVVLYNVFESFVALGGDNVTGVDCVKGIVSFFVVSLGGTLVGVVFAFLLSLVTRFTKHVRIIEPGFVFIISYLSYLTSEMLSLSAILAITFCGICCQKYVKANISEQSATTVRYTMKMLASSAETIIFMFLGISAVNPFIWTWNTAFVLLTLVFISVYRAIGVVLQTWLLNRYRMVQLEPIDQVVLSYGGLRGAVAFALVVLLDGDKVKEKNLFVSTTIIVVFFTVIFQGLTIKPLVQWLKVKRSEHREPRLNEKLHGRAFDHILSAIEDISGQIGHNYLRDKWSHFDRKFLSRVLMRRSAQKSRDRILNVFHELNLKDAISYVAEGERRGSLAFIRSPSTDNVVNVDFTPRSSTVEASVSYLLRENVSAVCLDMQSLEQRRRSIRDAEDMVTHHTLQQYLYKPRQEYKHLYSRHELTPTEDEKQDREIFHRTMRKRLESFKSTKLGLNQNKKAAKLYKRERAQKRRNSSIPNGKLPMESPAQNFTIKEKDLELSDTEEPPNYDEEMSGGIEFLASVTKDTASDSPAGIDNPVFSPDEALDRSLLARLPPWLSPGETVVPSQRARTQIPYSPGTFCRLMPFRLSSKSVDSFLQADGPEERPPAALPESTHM
Method: NHE and NHE5 Test Description:
In this test, the recovery in the intracellular pH (pHi) of LAP1 cells, which stably express the different subtypes of the sodium-proton exchanger (NHE), after an acidification was determined. This recovery sets in even under bicarbonate-free conditions in the case of functioning NHE. To this end, the pHi was determined with the pH-sensitive fluorescent dye BCECF (Molecular Probes, Eugene, Oreg., USA; the precursor BCECF-AM is used). The cells were first incubated with BCECF (5 μM BCECF-AM) in NH4Cl buffer (NH4Cl buffer: 115 mM cholineCl, 20 mM NH4Cl, 5 mM KCl, 1 mM CaCl2, 1 mM MgCl2, 20 mM Hepes, 5 mM glucose; a pH of 7.4 is established with 1 M KOH). […] The pH recovery was started by the addition of 90 μl of Na^+-containing buffer (133.8 mM NaCl, 4.7 mM KCl, 1.25 mM CaCl2, 1.25 mM MgCl2, 0.97 mM Na2HPO4, 0.23 mM NaH2PO4, 10 mM Hepes, 5 mM glucose; a pH of 7.4 is established with 1 M NaOH) in the analytical instrument (FLIPR, “Fluorometric Imaging Plate Reader”, Molecular Devices, Sunnyvale, Calif., USA). The BCECF fluorescence was determined at an excitation wavelength of 498 nm and the FLIPR emission filter 1 (band gap from 510 to 570 nm). The subsequent changes in fluorescence were registered for NHE and NHE5 for two minutes as a measure of the pH recovery. […]

hippocampus sections = assay: long-term experiments on hippocampus sections (in vitro), weak tetanus early LTP in CA 1; design: species or system rats; conditions: rat hippocampus sections, 10 μM
NHE-1 = NHE-1 (Homo sapiens, UniProt P19634); assay: inhibitory action on NHE subtypes: NHE-1; conditions: therapeutically utilizable concentration range
Chain of NHE-1 (P19634 whole entry, species assumed): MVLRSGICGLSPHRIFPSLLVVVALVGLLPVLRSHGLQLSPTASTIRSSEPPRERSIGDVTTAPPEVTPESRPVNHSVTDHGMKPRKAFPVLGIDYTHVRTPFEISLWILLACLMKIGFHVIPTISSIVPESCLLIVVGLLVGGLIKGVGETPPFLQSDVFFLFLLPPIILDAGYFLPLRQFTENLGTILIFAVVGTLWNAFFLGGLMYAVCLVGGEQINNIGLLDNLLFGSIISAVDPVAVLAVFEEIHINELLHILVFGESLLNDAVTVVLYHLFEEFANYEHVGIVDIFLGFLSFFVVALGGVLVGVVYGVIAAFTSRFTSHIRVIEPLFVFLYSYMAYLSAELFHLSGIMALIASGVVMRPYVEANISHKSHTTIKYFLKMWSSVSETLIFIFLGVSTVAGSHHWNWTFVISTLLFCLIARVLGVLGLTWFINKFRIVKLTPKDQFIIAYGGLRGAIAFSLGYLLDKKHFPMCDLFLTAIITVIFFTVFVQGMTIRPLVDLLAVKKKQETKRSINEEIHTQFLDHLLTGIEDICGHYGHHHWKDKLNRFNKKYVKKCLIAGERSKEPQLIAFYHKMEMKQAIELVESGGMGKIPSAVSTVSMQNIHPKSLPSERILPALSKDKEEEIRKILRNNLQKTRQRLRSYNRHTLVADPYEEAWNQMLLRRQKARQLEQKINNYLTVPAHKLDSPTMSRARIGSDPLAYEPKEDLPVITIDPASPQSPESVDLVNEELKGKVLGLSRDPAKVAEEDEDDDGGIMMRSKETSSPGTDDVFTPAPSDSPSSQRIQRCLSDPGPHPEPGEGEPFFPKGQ

NHE-2 = molecular target: T2, NHE-2 (Homo sapiens, UniProt Q9UBY0); assay: inhibitory action on NHE subtypes: NHE-2; conditions: therapeutically utilizable concentration range
T2 sequence (Q9UBY0 1-812): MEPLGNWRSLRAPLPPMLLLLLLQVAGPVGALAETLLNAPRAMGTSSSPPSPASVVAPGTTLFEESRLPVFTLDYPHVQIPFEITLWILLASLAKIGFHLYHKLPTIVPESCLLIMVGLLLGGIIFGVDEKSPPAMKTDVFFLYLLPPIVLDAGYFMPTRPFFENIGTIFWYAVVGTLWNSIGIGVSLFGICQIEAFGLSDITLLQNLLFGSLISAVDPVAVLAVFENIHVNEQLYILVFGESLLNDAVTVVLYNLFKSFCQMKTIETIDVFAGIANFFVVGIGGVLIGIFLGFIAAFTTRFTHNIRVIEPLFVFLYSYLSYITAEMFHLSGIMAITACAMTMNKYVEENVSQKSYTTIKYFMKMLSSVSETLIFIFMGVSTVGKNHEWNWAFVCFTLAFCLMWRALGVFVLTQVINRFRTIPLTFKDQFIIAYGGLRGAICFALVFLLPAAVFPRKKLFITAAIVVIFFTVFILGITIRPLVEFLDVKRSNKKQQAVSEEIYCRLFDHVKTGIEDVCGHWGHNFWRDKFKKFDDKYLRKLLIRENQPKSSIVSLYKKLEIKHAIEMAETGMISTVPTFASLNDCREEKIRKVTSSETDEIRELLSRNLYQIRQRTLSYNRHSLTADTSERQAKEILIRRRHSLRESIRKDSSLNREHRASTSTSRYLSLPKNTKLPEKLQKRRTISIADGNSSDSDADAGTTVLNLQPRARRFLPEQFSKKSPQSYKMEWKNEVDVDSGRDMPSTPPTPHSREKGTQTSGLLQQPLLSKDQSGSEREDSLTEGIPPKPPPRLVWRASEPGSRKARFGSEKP

NHE [3] = molecular target: T1, NHE; assay: inhibitory action on NHE subtypes: NHE; conditions: therapeutically utilizable concentration range
NHE-5 = molecular target: T3, NHE-5 (Homo sapiens, UniProt Q14940); assay: inhibitory action on NHE subtypes: NHE-5; conditions: therapeutically utilizable concentration range
T3 sequence (Q14940 1-896): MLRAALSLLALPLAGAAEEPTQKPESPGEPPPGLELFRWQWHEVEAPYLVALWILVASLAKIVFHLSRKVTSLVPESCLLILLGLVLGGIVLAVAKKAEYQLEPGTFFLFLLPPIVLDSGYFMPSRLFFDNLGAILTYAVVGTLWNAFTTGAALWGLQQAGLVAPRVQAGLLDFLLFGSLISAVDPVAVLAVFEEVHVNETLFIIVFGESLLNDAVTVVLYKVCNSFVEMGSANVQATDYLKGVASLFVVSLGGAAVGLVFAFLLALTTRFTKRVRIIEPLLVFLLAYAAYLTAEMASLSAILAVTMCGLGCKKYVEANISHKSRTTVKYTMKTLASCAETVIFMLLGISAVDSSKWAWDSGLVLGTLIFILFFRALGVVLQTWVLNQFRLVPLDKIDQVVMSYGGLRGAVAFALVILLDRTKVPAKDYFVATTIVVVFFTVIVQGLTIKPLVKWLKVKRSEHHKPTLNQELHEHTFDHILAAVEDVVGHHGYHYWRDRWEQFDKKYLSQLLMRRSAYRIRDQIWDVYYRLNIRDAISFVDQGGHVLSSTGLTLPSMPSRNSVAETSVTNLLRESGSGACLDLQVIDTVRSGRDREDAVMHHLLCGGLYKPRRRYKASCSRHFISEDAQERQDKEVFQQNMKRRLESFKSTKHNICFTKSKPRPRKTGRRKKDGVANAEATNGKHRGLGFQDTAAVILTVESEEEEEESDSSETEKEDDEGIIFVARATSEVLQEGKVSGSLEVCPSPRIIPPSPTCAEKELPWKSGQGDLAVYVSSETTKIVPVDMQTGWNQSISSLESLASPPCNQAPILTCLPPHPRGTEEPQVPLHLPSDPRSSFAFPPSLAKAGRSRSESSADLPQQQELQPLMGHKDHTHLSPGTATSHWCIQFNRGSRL

Structure (SMILES): CN1Cc2c(Cl)cc(Cl)cc2C(c2ccc(S(=O)(=O)N=C(N)N)cc2)C1 (stereo not shown) (as salt: hydrochloride) [Example 1, N-Diaminomethylene-4-(6,8-dichloro-2-methyl-1,2,3,4-tetrahydro-isoquinolin-4-yl)benzenesulfonamide, dihydrochloride]
melting point: 140 °C (dec.)

Structure (SMILES): Clc1cccc(Cl)c1N=C1NCCN1 [Clonidine]
affinity for the adrenergic alpha-2 receptor [1]: high affinity
affinity for the imidazoline receptor (imidazoline receptor): high affinity

Structure (SMILES): CN1Cc2c(Cl)cc(Cl)cc2C(c2ccc(S(=O)(=O)N=C(N)N)cc2)C1 (stereo not shown) [Example 1, N-Diaminomethylene-4-(6,8-dichloro-2-methyl-1,2,3,4-tetrahydro-isoquinolin-4-yl)benzenesulfonamide, dihydrochloride]
IC50 (NHE [2]): 35 nM
intrinsic effect on synaptic transmission (hippocampus sections; before tetanus): no intrinsic effect
potentiation of the EPSP 80 min after the stimulus (hippocampus sections; weak tetanus, 80 min after stimulus (control 113%)): 137 % of the baseline

inhibitory action on NHE-1 (NHE-1): no relevant inhibitory actions
inhibitory action on NHE-2 (NHE-2): no relevant inhibitory actions
inhibitory action on NHE (NHE [3]): no relevant inhibitory actions
inhibitory action on NHE-5 (NHE-5): no relevant inhibitory actions
Structure (SMILES): Cc1csc(Cl)c1NC1=NCCN1 [tiamenidine]
